In brackets after ≈: the same amount, converted by molar mass.
Legend:
Assay type in all cases: cell-based
[1] = tested on: Enterococcus faecalis (EFA); assay: MIC, two-fold agar dilution (CLSI), clinical isolates
From the text: (§1) 1. The invention adopts the two-fold agar dilution method recommended by the operating procedure of antimicrobial susceptibility testing set by American Clinical and Laboratory Standards Institute (CLSI) to determine the Minimum Inhibitory Concentration (MIC) of the test samples against the tested strains.

[2] = tested on: Enterococcus faecium (EFM); assay: as above
From the text: as §1

[3] = tested on: Escherichia coli (including ESBLs, non-ESBLs); assay: as above
From the text: as §1

[4] = tested on: Moraxella catarrhalis (BCA); assay: as above; details: for Anti-bacterial activity (MIC), strain BCA 14-10: clinical isolate BCA 14-10
From the text: as §1

[5] = tested on: Streptococcus pneoumoniae (SPN); assay: as above
From the text: as §1

[6] = tested on: methicillin-resistant Staphylococcus aureus (MRSA); assay: as above
From the text: as §1

[7] = tested on: methicillin-resistant Staphylococcus epidermidis (MRSE); assay: as above
From the text: as §1

[8] = tested on: methicillin-sensitive Staphylococcus aureus (MSSA); assay: as above
From the text: as §1

[9] = tested on: methicillin-sensitive Staphylococcus epidermidis (MSSE); assay: as above
From the text: as §1

[10] = tested on: HCT-116 colorectal cancer cell line; assay: CCK-8 proliferation inhibition; details: Homo sapiens, HCT-116, 72 h, concentration of 30 μM; 72 hours; CCK-8; read-out: HCT116 inhibition rate/%
Summary of the method: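 HCT-116 cells, seeded at 2000 cells/well in McCoy's 5A with 10% newborn bovine serum, were cultured overnight at 37° C., 5% CO2, then exposed to compound dilutions in medium for 72 hours. Viability was read with 1:10 diluted CCK-8; controls received 1‰ DMSO.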

Compound: O=CN(O)C[C@@H](CC1CCCC1)C(=O)N1CC2(CC2)C[C@H]1C(=O)Nc1ncccc1F [Example 30, (S)-5-((R)-3-cyclopentyl-2-((N-hydroxyformamido)methyl)propionyl)-N-(3-fluoropyridin-2-yl)-5-spiro[2.4]heptane-6-carboxamide]
- MIC (anti-bacterial activity) ([1]; strain EFA 15-1): 4 µg/mL (≈ 9.25 µM)
- MIC (anti-bacterial activity) ([1]; strain EFA 15-2): 4 µg/mL (≈ 9.25 µM)
- MIC (anti-bacterial activity) ([1]; strain EFA 15-3): 4 µg/mL (≈ 9.25 µM)
- MIC (anti-bacterial activity) ([1]; strain EFA 15-4): 4 µg/mL (≈ 9.25 µM)
- MIC (anti-bacterial activity) ([1]; strain EFA 15-5): 4 µg/mL (≈ 9.25 µM)
- MIC (anti-bacterial activity) ([1]; strain EFA 15-6): 2 µg/mL (≈ 4.62 µM)
- MIC (anti-bacterial activity) ([1]; strain EFA 15-9): 8 µg/mL (≈ 18.5 µM)
- MIC (anti-bacterial activity) ([2]; strain EFM 15-1): 2 µg/mL (≈ 4.62 µM)
- MIC (anti-bacterial activity) ([2]; strain EFM 15-2): 1 µg/mL (≈ 2.31 µM)
- MIC (anti-bacterial activity) ([2]; strain EFM 15-3): 0.25 µg/mL (≈ 0.578 µM)
- MIC (anti-bacterial activity) ([2]; strain EFM 15-4): 1 µg/mL (≈ 2.31 µM)
- MIC (anti-bacterial activity) ([2]; strain EFM 15-5): 4 µg/mL (≈ 9.25 µM)
- MIC (anti-bacterial activity) ([2]; strain EFM 15-6): 1 µg/mL (≈ 2.31 µM)
- MIC (anti-bacterial activity) ([3]; strain ECO+ 15-1): 32 µg/mL (≈ 74 µM)
- MIC (anti-bacterial activity) ([3]; strain ECO+ 15-2): > 32 µg/mL
- MIC (anti-bacterial activity) ([3]; strain ECO+ 15-3): > 32 µg/mL
- MIC (anti-bacterial activity) ([3]; strain ECO+ 15-4): > 32 µg/mL
- MIC (anti-bacterial activity) ([3]; strain ECO− 15-1): > 32 µg/mL
- MIC (anti-bacterial activity) ([3]; strain ECO− 15-2): > 32 µg/mL
- MIC (anti-bacterial activity) ([3]; strain ECO− 15-3): > 32 µg/mL
- MIC (anti-bacterial activity) ([3]; strain ECO− 15-4): > 32 µg/mL
- Anti-bacterial activity (MIC), strain BCA 14-10 [4]: 0.5 µg/mL
- MIC (anti-bacterial activity) ([4]; strain BCA 14-1): 2 µg/mL (≈ 4.62 µM)
- MIC (anti-bacterial activity) ([4]; strain BCA 14-4): 2 µg/mL (≈ 4.62 µM)
- MIC (anti-bacterial activity) ([4]; strain BCA 14-5): 1 µg/mL (≈ 2.31 µM)
- MIC (anti-bacterial activity) ([4]; strain BCA 14-6): 4 µg/mL (≈ 9.25 µM)
- MIC (anti-bacterial activity) ([4]; strain BCA 14-7): 1 µg/mL (≈ 2.31 µM)
- MIC (anti-bacterial activity) ([4]; strain BCA 14-8): 1 µg/mL (≈ 2.31 µM)
- MIC (anti-bacterial activity) ([5]; strain SPN 16-2): 4 µg/mL (≈ 9.25 µM)
- MIC (anti-bacterial activity) ([5]; strain SPN 16-4): 1 µg/mL (≈ 2.31 µM)
- MIC (anti-bacterial activity) ([6]; strain MRSA 15-1): 0.5 µg/mL (≈ 1.16 µM)
- MIC (anti-bacterial activity) ([6]; strain MRSA 15-2): 0.5 µg/mL (≈ 1.16 µM)
- MIC (anti-bacterial activity) ([6]; strain MRSA 15-3): 0.5 µg/mL (≈ 1.16 µM)
- MIC (anti-bacterial activity) ([6]; strain MRSA 15-4): 0.5 µg/mL (≈ 1.16 µM)
- MIC (anti-bacterial activity) ([7]; strain MRSE 15-1): 0.5 µg/mL (≈ 1.16 µM)
- MIC (anti-bacterial activity) ([7]; strain MRSE 15-2): 2 µg/mL (≈ 4.62 µM)
- MIC (anti-bacterial activity) ([7]; strain MRSE 15-3): 2 µg/mL (≈ 4.62 µM)
- MIC (anti-bacterial activity) ([7]; strain MRSE 15-7): 2 µg/mL (≈ 4.62 µM)
- MIC (anti-bacterial activity) ([8]; strain MSSA 15-3): 0.5 µg/mL (≈ 1.16 µM)
- MIC (anti-bacterial activity) ([8]; strain MSSA 15-4): 0.5 µg/mL (≈ 1.16 µM)
- MIC (anti-bacterial activity) ([8]; strain MSSA 15-5): 0.5 µg/mL (≈ 1.16 µM)
- MIC (anti-bacterial activity) ([8]; strain MSSA 15-6): 0.5 µg/mL (≈ 1.16 µM)
- MIC (anti-bacterial activity) ([9]; strain MSSE 15-3): 2 µg/mL (≈ 4.62 µM)
- MIC (anti-bacterial activity) ([9]; strain MSSE 15-4): 2 µg/mL (≈ 4.62 µM)
- MIC (anti-bacterial activity) ([9]; strain MSSE 15-5): 2 µg/mL (≈ 4.62 µM)
- MIC (anti-bacterial activity) ([9]; strain MSSE 15-6): 0.5 µg/mL (≈ 1.16 µM)
- inhibition at 30 µM [10]: 17%

Compound: O=CN(O)C[C@@H](CC1CCCC1)C(=O)N1CC2(CC2)C[C@H]1C(=O)Nc1cc[nH]n1 [Example 31, (S)-5-((R)-3-cyclopentyl-2-((N-hydroxyformamido)methyl)propionyl)-N-(1H-pyrazol-3-yl)-5-azaspiro[2.4]heptane-6-carboxamide]
- MIC (anti-bacterial activity) ([1]; strain EFA 15-1): 32 µg/mL (≈ 79.3 µM)
- MIC (anti-bacterial activity) ([1]; strain EFA 15-2): 32 µg/mL (≈ 79.3 µM)
- MIC (anti-bacterial activity) ([1]; strain EFA 15-3): 32 µg/mL (≈ 79.3 µM)
- MIC (anti-bacterial activity) ([1]; strain EFA 15-4): 32 µg/mL (≈ 79.3 µM)
- MIC (anti-bacterial activity) ([1]; strain EFA 15-5): 32 µg/mL (≈ 79.3 µM)
- MIC (anti-bacterial activity) ([1]; strain EFA 15-6): 32 µg/mL (≈ 79.3 µM)
- MIC (anti-bacterial activity) ([1]; strain EFA 15-9): 32 µg/mL (≈ 79.3 µM)
- MIC (anti-bacterial activity) ([2]; strain EFM 15-1): 4 µg/mL (≈ 9.91 µM)
- MIC (anti-bacterial activity) ([2]; strain EFM 15-2): 4 µg/mL (≈ 9.91 µM)
- MIC (anti-bacterial activity) ([2]; strain EFM 15-3): 2 µg/mL (≈ 4.96 µM)
- MIC (anti-bacterial activity) ([2]; strain EFM 15-4): 4 µg/mL (≈ 9.91 µM)
- MIC (anti-bacterial activity) ([2]; strain EFM 15-5): 2 µg/mL (≈ 4.96 µM)
- MIC (anti-bacterial activity) ([2]; strain EFM 15-6): 4 µg/mL (≈ 9.91 µM)
- MIC (anti-bacterial activity) ([3]; strain ECO+ 15-1): 32 µg/mL (≈ 79.3 µM)
- MIC (anti-bacterial activity) ([3]; strain ECO+ 15-2): > 32 µg/mL
- MIC (anti-bacterial activity) ([3]; strain ECO+ 15-3): > 32 µg/mL
- MIC (anti-bacterial activity) ([3]; strain ECO+ 15-4): > 32 µg/mL
- MIC (anti-bacterial activity) ([3]; strain ECO− 15-1): > 32 µg/mL
- MIC (anti-bacterial activity) ([3]; strain ECO− 15-2): > 32 µg/mL
- MIC (anti-bacterial activity) ([3]; strain ECO− 15-3): > 32 µg/mL
- MIC (anti-bacterial activity) ([3]; strain ECO− 15-4): > 32 µg/mL
- Anti-bacterial activity (MIC), strain BCA 14-10 [4]: 2 µg/mL
- MIC (anti-bacterial activity) ([4]; strain BCA 14-1): 4 µg/mL (≈ 9.91 µM)
- MIC (anti-bacterial activity) ([4]; strain BCA 14-4): 16 µg/mL (≈ 39.7 µM)
- MIC (anti-bacterial activity) ([4]; strain BCA 14-5): 2 µg/mL (≈ 4.96 µM)
- MIC (anti-bacterial activity) ([4]; strain BCA 14-6): 8 µg/mL (≈ 19.8 µM)
- MIC (anti-bacterial activity) ([4]; strain BCA 14-7): 2 µg/mL (≈ 4.96 µM)
- MIC (anti-bacterial activity) ([4]; strain BCA 14-8): 4 µg/mL (≈ 9.91 µM)
- MIC (anti-bacterial activity) ([5]; strain SPN 16-2): 1 µg/mL (≈ 2.48 µM)
- MIC (anti-bacterial activity) ([5]; strain SPN 16-4): 16 µg/mL (≈ 39.7 µM)
- MIC (anti-bacterial activity) ([6]; strain MRSA 15-1): 2 µg/mL (≈ 4.96 µM)
- MIC (anti-bacterial activity) ([6]; strain MRSA 15-2): 2 µg/mL (≈ 4.96 µM)
- MIC (anti-bacterial activity) ([6]; strain MRSA 15-3): 2 µg/mL (≈ 4.96 µM)
- MIC (anti-bacterial activity) ([6]; strain MRSA 15-4): 2 µg/mL (≈ 4.96 µM)
- MIC (anti-bacterial activity) ([7]; strain MRSE 15-1): 0.5 µg/mL (≈ 1.24 µM)
- MIC (anti-bacterial activity) ([7]; strain MRSE 15-2): 2 µg/mL (≈ 4.96 µM)
- MIC (anti-bacterial activity) ([7]; strain MRSE 15-3): 2 µg/mL (≈ 4.96 µM)
- MIC (anti-bacterial activity) ([7]; strain MRSE 15-7): 2 µg/mL (≈ 4.96 µM)
- MIC (anti-bacterial activity) ([8]; strain MSSA 15-3): 2 µg/mL (≈ 4.96 µM)
- MIC (anti-bacterial activity) ([8]; strain MSSA 15-4): 2 µg/mL (≈ 4.96 µM)
- MIC (anti-bacterial activity) ([8]; strain MSSA 15-5): 2 µg/mL (≈ 4.96 µM)
- MIC (anti-bacterial activity) ([8]; strain MSSA 15-6): 2 µg/mL (≈ 4.96 µM)
- MIC (anti-bacterial activity) ([9]; strain MSSE 15-3): 2 µg/mL (≈ 4.96 µM)
- MIC (anti-bacterial activity) ([9]; strain MSSE 15-4): 2 µg/mL (≈ 4.96 µM)
- MIC (anti-bacterial activity) ([9]; strain MSSE 15-5): 2 µg/mL (≈ 4.96 µM)
- MIC (anti-bacterial activity) ([9]; strain MSSE 15-6): 2 µg/mL (≈ 4.96 µM)
- inhibition at 30 µM [10]: 19%

From patent US10738028B2, “Spiro three-membered ring, spiro five-membered ring peptide deformylase inhibitor and use thereof in antibacteria and anti-tumor” (priority 2016, dated 2020)
